# Reference: patent publication US11396501B2, “Heteroaryl compounds as CXCR4 inhibitors, composition and method using the same” (CGENETECH (SUZHOU, CHINA) CO., LTD., priority 2017, dated 2022)
# Legend:
# CXCR4 [1] = molecular target: T1, CXCR4 (Homo sapiens, UniProt P61073); assay: FLIPR Tetra calcium mobilization assay; assay type: cell-based; conditions: Human CD4+ T-Cells; CXCL12 added; FLIPR Calcium 4 assay kit
# Experimental: FLIPR Tetra Calcium Mobilization Assay The FLIPR Tetra calcium mobilization assay was performed by HD Bioscience. Briefly, The Molecular Devices, Fluorescent Imaging Plate Reader (FLIPR) Tetra was used in this assay. Excitation was achieved through unique placement of LED's within the instrument and emission captured by a CCD camera (EMCCD camera for FI and ICCD camera for luminescence). The homogeneous FLIPR Calcium 4 assay kit from Molecular Devices was used as the fluorescence reagent. Compounds were solubilized in 100% dimethyl sulfoxide (DMSO) to a concentration of 30 mM. A 10-point, 4-fold, intermediate dilution series was created in 100% DMSO with a top concentration of 4 mM and a bottom concentration of 0.01 μM. A near assay ready, direct dilution plate ([…]) was prepared from this compound dilution plate by transferring 1 μL of each dilution of compound in 100% DMSO to a Greiner #781201 plate. In addition, each […] plate also contained positive and negative control wells to define the upper and lower limits for the assay signal. The final assay concentration range of compound was 10 μM to 0.035 nM in 0.5% DMSO. Human CD^4+ T-Cells were isolated from human whole blood and subsequently activated and expanded using a CD3/CD28 expansion kit (Life Technologies). The cells were frozen in ThermoFisher-formulated Recovery Cell Culture Freezing Medium containing 10% Dimethyl sulfoxide (DMSO) and 10% Fetal Bovine Serum (FBS) (ThermoFisher Catalog No. 10100147). When used, cells were resuspended using room temperature 1× HBSS/20 mM HEPES/0.005% P-104 assay buffer, adjusted the volume of the suspension to achieve a cell concentration of 2.5×10^6 cells/mL. 2× Calcium 4 dye (20 μL/well) were added and the mixture were centrifuged briefly ( 10 s) and stopped when it reached 1000 rpm. The plates were allowed to equilibrate before compounds and CXCL12 were added to the plates. The raw data were analyzed using Abase. The percent (%) effect at each concentration of compound was calculated by Abase and was based on and relative to the amount of calcium produced in the positive and negative control wells contained within each assay plate. The concentrations and % effect values for tested compounds were plotted by Abase and the concentration of compound required for 50% effect (IC50) was determined with a four-parameter logistic dose response equation. FIGS. 3 and 4 summarize the results of Compounds A78 and A83 in the calcium mobilization assay.
# CXCR4 [2] = molecular target: T1, CXCR4; assay: HPB-ALL CXCR4 competitive binding assay (12G5 binding assay); set-up: HPB-ALL cells were maintained in RPMI-1640 (Gibico) supplemented with 10% FBS (Hyclone); endogenous in cells; host or cells: HPB-ALL cells; conditions: HPB-ALL cells; competition with APC-conjugated anti-human CXCR4 clone 12G5 at its EC80; 4° C. for 3 h; FACS
# Experimental: HPB-ALL CXCR4 Competitive Binding Assay
# HPB-ALL cells were maintained in RPMI-1640 (Gibico) supplemented with 10% FBS (Hyclone). APC-conjugated anti-human CXCR4 was from Sungene. EC80 was first determined for 12G5 binding to CXCR4. Then the compounds for testing were added into 96-well plates serially diluted at a ratio of 1:3. Cells were washed once with ice-cold assay buffer (DPBS+2% HI-FBS) and then re-suspended in the same buffer at a final concentration of 1×10^6/mL. Cell suspension was then added into the wells and with the addition of APC-conjugated anti-human CXCR4 clone 12G5 at its EC80 determined. The mix of cell, compounds and APC-conjugated anti-human CXCR4 were incubated at 4° C. for 3 h before addition of 100 μL of 4% PFA. Cells were then washed once and resuspended in assay buffer and examined by FACS. The percent (%) effect at each concentration of compound was calculated and relative to the amount of calcium produced in the positive and negative control wells contained within each assay plate. The concentrations and % effect values for tested compounds were plotted and the concentration of compound required for 50% effect (IC50) was determined. Tables 2 summarize results of the CXCR4 competitive binding assay for selected compounds disclosed in the present disclosure. FIGS. 1-2 depict the IC50 curves of compounds A42 and A43.
# T1 sequence (P61073 whole entry): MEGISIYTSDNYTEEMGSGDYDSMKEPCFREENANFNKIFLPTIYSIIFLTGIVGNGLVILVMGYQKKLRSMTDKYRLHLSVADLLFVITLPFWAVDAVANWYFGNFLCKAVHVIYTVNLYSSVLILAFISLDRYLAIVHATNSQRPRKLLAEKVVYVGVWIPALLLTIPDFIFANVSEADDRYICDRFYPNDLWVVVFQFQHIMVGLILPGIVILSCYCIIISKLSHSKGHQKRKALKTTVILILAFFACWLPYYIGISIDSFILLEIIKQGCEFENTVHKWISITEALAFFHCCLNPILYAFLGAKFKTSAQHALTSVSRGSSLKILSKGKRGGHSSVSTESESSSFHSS
IC50 (CXCR4 [1]) [nM],IC50 (CXCR4 [2]) [nM],Compound
4.5,45,"CN1CCN(c2cc(CN(C)C3CCCc4cccnc43)ncn2)CC1 (stereo not shown) [Compound A1, N-methyl-N-((6-(4-methylpiperazin-1-yl)pyrimidin-4-yl)methyl)-5,6,7,8-tetrahydroquinolin-8-amine]"
3.4,32,CN1CCCN(c2cc(CN(C)C3CCCc4cccnc43)ncn2)CC1 (stereo not shown) [Compound A22]
0.021,9.8,Cc1nc(CN(C)[C@H]2CCCc3cccnc32)cc(N2CCN(C)CC2)n1 [Compound A42]
0.024,8.8,Cc1nc(CN(C)[C@H]2CCCc3cccnc32)c(C)c(N2CCN(C)CC2)n1 [Compound A61]
0.09,15,"Cc1nc(CN(C)[C@@H](C)c2ccccn2)cc(N2CCN(C)CC2)n1 [Compound A75, (S)-N-methyl-N-((2-methyl-6-(4-methylpiperazin-1-yl)pyrimidin-4-yl)methyl)-1-(pyridin-2-yl)ethan-1-amine]"
1.2,18,"Cc1nc(CN(C)C2=C(F)CCc3cccnc32)cc(N2CCN(C)CC2)n1 [Compound D1, 7-fluoro-N-methyl-N-((2-methyl-6-(4-methylpiperazin-1-yl)pyrimidin-4-yl)methyl)-5,6-dihydroquinolin-8-amine]"
0.24,65,"Cc1nc(CN(C)c2cccc3cccnc23)cc(N2CCN(C)CC2)n1 [Compound D2, N-methyl-N-((2-methyl-6-(4-methylpiperazin-1-yl)pyrimidin-4-yl)methyl)quinolin-8-amine]"
0.14,55,Cc1nc(CN(C)c2cccc3cccnc23)cc(N2CCN(C)[C@H](C)C2)n1 [Compound D4]
0.3,57,Cc1nc(CN(C)c2c(C)ccc3cccnc23)cc(N2CCN(C)CC2)n1 [Compound D14]
3.1,675,Cc1nc(CN(C)c2cc(F)c(F)c3cccnc23)cc(N2CCN(C)CC2)n1 [Compound D20]
16,151,CCN(Cc1cc(N2CCN(C)CC2)nc(C)n1)c1cccc2cccnc12 [Compound D25]
0.21,338,Cc1nc(CN(CCCCN)c2cccc3cccnc23)cc(N2CCN(C)CC2)n1 [Compound D28]
9.3,3820,"Cc1nc(CN(CCCC(=O)O)c2cccc3cccnc23)cc(N2CCN(C)CC2)n1 [Compound D30, 4-(((2-methyl-6-(4-methylpiperazin-1-yl)pyrimidin-4-yl)methyl)(quinolin-8-yl)amino)butanoic acid]"
3.6,1170,Cc1nc(CN(C)c2cccc3cccnc23)c(C#N)c(N2CCN(C)CC2)n1 [Compound D36]
